Measurements: patent EP0442744A2, “Treatment of viral disease by glycosides” (TSUMURA & CO., priority 1990, dated 1991)

Columns and labels:
[1] = Cytotoxicity in FL cells (experiment repeated without the virus); settings: human
Protocol: (§1) When the experiment was started, the medium was removed from the dishes and a suspension (1 ml) containing Herpes simplex virus at the predetermined concentration in the medium was added to the dishes. The dishes were incubated in an incubator under the humidified air containing 5% CO₂ at 36°C for one hour to allow the adsorption of the viruses. Then the medium was removed and a fresh medium containing the test compounds was added. After 24 hours, the number of polykaryotic giant cells in each dish was counted and the minimum concentration showing no polykaryotic giant cells was taken as the antivirally active concentration to the herpes virus. The experiment was repeated without the virus and the minimum concentration at which cells died was taken as the cytotoxic concentration.

Herpes simplex virus = assay: Herpes virus inhibition experiment in FL cells (polykaryotic giant cell count); assay type: cell-based; settings: for minimal effective concentration: minimum concentration showing no polykaryotic giant cells after 24 hours, FL cells infected with Herpes simplex virus, read-out: Antivial activity
Protocol: as §1

in vitro = settings: human, fl cells
Protocol: as §1

Compound | MCC [1] [µg/mL] | minimal effective concentration (Herpes simplex virus) [µg/mL] | MCC at 24 h (in vitro) [µg/mL] | Antivial activity (Herpes simplex virus) [ng/mL]
C[C@H]1O[C@@H](O[C@H]2[C@@H](O)C[C@H](O[C@H]3[C@@H](O)C[C@H](O[C@H]4CC[C@@]5(C)[C@H](CC[C@@H]6[C@@H]5C[C@@H](O)[C@]5(C)[C@@H](C7=CC(=O)OC7)CC[C@]65O)C4)O[C@@H]3C)O[C@@H]2C)C[C@H](O)[C@@H]1O [Compound 2, 3-[(O-2,6-dideoxy-β-D-ribo-hexopranoxyl-(1→4)-O-2,6-dideoxy-β-D-ribo-hexopyranosyl-(1→4)-2,6-dideoxy-β-D-ribo-hexopyranosyl)-oxy]-12,14-dihydroxycard-(20)22-enolide] | 0.48 | 0.05 |  | 
C[C@H]1O[C@@H](O[C@H]2CC[C@]3(C=O)[C@H]4CC[C@]5(C)[C@@H](C6=CC(=O)OC6)CC[C@]5(O)[C@@H]4CC[C@]3(O)C2)C[C@H](O)[C@@H]1O [Compound 5] | 0.46 | 0.03 |  | 
C[C@]12CC[C@H](O)C[C@H]1CC[C@@H]1[C@@H]2CC[C@]2(C)[C@@H](c3ccc(=O)oc3)CC[C@]12O [Compound 7, 3,14-dihydroxybufa-20,22-dienolide] |  |  | 0.5 | 8
C[C@@H]1O[C@@H](O[C@H]2CC[C@]3(C=O)[C@H]4CC[C@]5(C)[C@@H](C6=CC(=O)OC6)CC[C@]5(O)[C@@H]4CC[C@]3(O)C2)[C@H](O)[C@H](O)[C@H]1O [Compound 6, 3β-[(6-deoxy-α-L-mannopyranosyl)oxy]-5,14-dihydroxy-19-oxo-5β-card-20(22) enolide] | 0.38 | 0.025 |  | 
C[C@H]1O[C@@H](O[C@H]2[C@@H](O)C[C@H](O[C@H]3[C@@H](O)C[C@H](O[C@H]4CC[C@@]5(C)[C@H](CC[C@@H]6[C@@H]5CC[C@]5(C)[C@@H](C7=CC(=O)OC7)CC[C@]65O)C4)O[C@@H]3C)O[C@@H]2C)C[C@H](O)[C@@H]1O [Compound 1, 3-[(O-2,6-dideoxy-β-D-ribo-hexopranoxyl-(1→4)-O-2,6-dideoxy-β-D-ribo-hexopyranosyl-(1→4)-2,6-dideoxy-β-D-ribo-hexopyranosyl)-oxy]-14-hydroxycard-(20)22-enolide] | 0.48 | 0.025 |  | 
C[C@@H]1O[C@@H](O[C@H]2C[C@@H](O)[C@]3(CO)[C@H]4[C@H](O)C[C@]5(C)[C@@H](C6=CC(=O)OC6)CC[C@]5(O)[C@@H]4CC[C@]3(O)C2)[C@H](O)[C@H](O)[C@H]1O [Compound 4, 3-[(6-deoxy-α-L-mannopyranosyl)oxy]-1,5,11α, 14,19-pentahydroxycard-20(22) enolide] | 0.46 | 0.04 |  | 
